In US12071414B2, “Apelin receptor agonists and methods of use thereof” (Sanford Burnham Prebys Medical Discovery Institute, priority 2015, dated 2024):

Target: T1, human apelin receptor (APJ, AGTRL-one, APLNR) (Homo sapiens, UniProt P35414)
T1 construct: host or cells: Chinese hamster ovary cells, stably integrated receptor
T1 sequence (P35414 1-380): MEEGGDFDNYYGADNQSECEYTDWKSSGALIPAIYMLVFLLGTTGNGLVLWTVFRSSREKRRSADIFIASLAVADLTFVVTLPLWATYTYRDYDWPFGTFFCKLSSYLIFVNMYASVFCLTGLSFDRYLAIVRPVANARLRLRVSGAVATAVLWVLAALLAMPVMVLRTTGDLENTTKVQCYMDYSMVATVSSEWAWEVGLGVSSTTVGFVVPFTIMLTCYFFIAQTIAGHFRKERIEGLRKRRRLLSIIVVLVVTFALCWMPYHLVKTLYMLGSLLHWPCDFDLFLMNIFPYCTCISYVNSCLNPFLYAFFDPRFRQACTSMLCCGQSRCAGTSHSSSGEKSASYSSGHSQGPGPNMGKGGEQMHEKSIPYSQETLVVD
Experiment: cell-based cAMP TR-FRET assay of apelin receptor activation
Settings: CHO cells expressing human APJ, forskolin-stimulated cAMP, 0.5 h incubation, 50% of control (apelin-13, 1 nM) response; read-out: Potency Category (EC50)
Protocol: The assays disclosed herein were performed using cell lines from DiscoveX, Inc. Biological activity was determined to the cell—based assay. This assay detects activation of the receptor by reporting on intracellular cyclic adenosine monophosphate (cAMP) level. Chinese hamster ovary cells engineered to express the stably integrated human apelin receptor (APJ, AGTRL—one, APLNR), pleaded into the wells of the microtiter plate. Cells were stimulated with […] to increase intracellular cyclic AMP. Immediately following, compounds were added to the range of final concentrations 0.0-100 μM, in DMSO (not to exceed a final DMSO concentration greater than 1% ν/ν), and allowed to incubate with the cells for 0.5 h. At the end of the incubation, cells were lysed to stop APJ signaling and cAMP was quantified using a commercially available competitive immunoassay kit that applies homogenous time—resolved florescence energy transfer (TR—FRET). The assay is based on the competition between a europium (Eu) chelate—labeled cAMP donor tracer and cellular cAMP for binding sites on a cAMP—specific monoclonal antibody labeled with an acceptor fluorophore. When antibodies are bound to the cAMP tracer light emissions at 320 nm stimulate the energy transfer from the donor to the acceptor, which in turn emits light at 665 nm. In the presence of competitive unlabeled cAMP (derived from the activity of the receptor or forskolin-stimulated production of cAMP), the labelled cAMP tracer is dissociated from the cAMP antibody, resulting in a loss of FRET signal. The amount of light emitted by the FRET is inversely proportional to the cAMP generated by the cell/receptor system. Potency and efficacy at APJ are reported in reference to the canonical APJ receptor agonist apelin—13 when tested at 1 nM. […] Compound efficacy (% response) is reported as a percentage of the maximal apein-13 response at 1 nM (control). Potencies were calculated by fitting a […] logistic curve to concentration response consisting of at least 10 discrete data points spanning effective range of the compounds in the cell-based assay that measures cAMP. […] Category B is 200-500 nM; Category C is 100-200 nM; Category D is 50-100 nM; and Category E is <50 nM.

EC50 | Structure (SMILES)
< 50 nM | COc1ccc(OC(C(=O)Nc2nc3cc(OC)c(OC)cc3s2)c2ccc(C#N)cc2)cc1 (stereo not shown)
> 500 nM | CCS(=O)(=O)c1ccc(C(Oc2ccc(F)cc2)C(=O)Nc2nc3cc(OC)c(OC)cc3s2)cc1 (stereo not shown)
> 500 nM | CCS(=O)(=O)c1ccc(C(Oc2ccccc2C)C(=O)Nc2nc3cc(OC)c(OC)cc3s2)cc1 (stereo not shown)
> 500 nM | CCS(=O)(=O)c1ccc(C(Oc2ccc(C#N)cc2)C(=O)Nc2nc3cc(OCc4ccccc4)c(OC)cc3s2)cc1 (stereo not shown)
< 50 nM | COc1cc2nc(NC(=O)C(Oc3ccc(C#N)cc3)c3ccc(C(=O)N4CCN(C)CC4)cc3)oc2cc1OC (stereo not shown)
50 to 100 nM | COc1cc2nc(NC(=O)C(Oc3ccc(OCCN4CCCC4)cc3)c3ccc(C#N)cc3)sc2cc1OC (stereo not shown)
> 500 nM | CCS(=O)(=O)c1ccc(C(C(=O)Nc2nc3cc(OC)c(OC)cc3s2)N2CCCCC2)cc1 (stereo not shown)
< 50 nM | CCS(=O)(=O)c1ccc(C(Oc2ccc(C#N)cc2)C(=O)Nc2nc3ccc(OC)c(OC(C)C)c3s2)cc1 (stereo not shown)
> 500 nM | CCS(=O)(=O)c1ccc(C(Oc2ccc(C#N)cc2)C(=O)Nc2nc3cc(OCCN(C)C)c(OC)cc3s2)cc1 (stereo not shown)
200 to 500 nM | CCS(=O)(=O)c1ccc(C(Oc2ccc(C)cc2)C(=O)Nc2nc3cc(OC)c(OC)cc3s2)cc1 (stereo not shown)
< 50 nM | CCOc1cc2nc(NC(=O)C(Oc3ccc(C#N)cc3)c3ccc(S(=O)(=O)CC)cc3)sc2cc1OC (stereo not shown)
> 500 nM | CCS(=O)(=O)c1ccc(C(Cc2ccccc2)C(=O)Nc2nc3cc(OC)c(OC)cc3s2)cc1 (stereo not shown)
> 500 nM | CCS(=O)(=O)c1ccc(C(Oc2ccc(C#N)cc2)C(=O)Nc2nc3cc(OC)ccc3s2)cc1 (stereo not shown)
50 to 100 nM | COCCNC(=O)c1ccc(C(Oc2ccc(C#N)cc2)C(=O)Nc2nc3cc(OC)c(OC)cc3o2)cc1 (stereo not shown)
> 500 nM | CCS(=O)(=O)c1ccc(C(Oc2ccc(OC)cc2)C(=O)Nc2nc3ccc4c(c3s2)OCO4)cc1 (stereo not shown)
200 to 500 nM | COc1cc2nc(NC(=O)C(Oc3ccc(C#N)cc3)c3ccccc3S(=O)(=O)c3ccc(F)cc3)sc2cc1OC (stereo not shown)
> 500 nM | CCS(=O)(=O)c1ccc(C(OCc2ccc(C#N)cc2)C(=O)Nc2nc3cc(OC)c(OC)cc3s2)cc1 (stereo not shown)
> 500 nM | COc1cc2nc(NC(=O)C(Oc3ccc(O)cc3)c3ccc(C#N)cc3)sc2cc1OC (stereo not shown)
< 50 nM | CCS(=O)(=O)c1ccc(C(Oc2ccc([N+](=O)[O-])cc2)C(=O)Nc2nc3cc(OC)c(OC)cc3s2)cc1 (stereo not shown)
< 50 nM | COc1cc2nc(NC(=O)C(Oc3ccc(OCCO)cc3)c3ccc(C#N)cc3)sc2cc1OC (stereo not shown)
50 to 100 nM | CCS(=O)(=O)c1ccc(C(Oc2ccc(C#N)c(C)c2)C(=O)Nc2nc3cc(OC)c(OC)cc3s2)cc1 (stereo not shown)
50 to 100 nM | CCS(=O)(=O)c1ccc(C(Oc2ccc(C#N)cc2)C(=O)Nc2nc3ccc(C)c(OC)c3s2)cc1 (stereo not shown)
100 to 200 nM | CCS(=O)(=O)c1ccc(C(Oc2ccc(C#N)cc2C(F)(F)F)C(=O)Nc2nc3cc(OC)c(OC)cc3s2)cc1 (stereo not shown)
< 50 nM | COc1cc2nc(NC(=O)C(Oc3ccc(C#N)cc3)c3ccc(S(=O)(=O)CC4CC4)cc3)sc2cc1OC (stereo not shown)
> 500 nM | CCS(=O)(=O)c1ccc(C(OCCc2ccccc2)C(=O)Nc2nc3cc(OC)c(OC)cc3s2)cc1 (stereo not shown)
> 500 nM | CCS(=O)(=O)c1ccc(C(NC2CCCC2)C(=O)Nc2nc3cc(OC)c(OC)cc3s2)cc1 (stereo not shown)

The next lines start with the compound.

Structure (SMILES) | EC50
CCN(CC)c1ccc2sc(NC(=O)Cc3ccc(S(=O)(=O)CC)cc3)nc2c1 | > 500 nM
CCS(=O)(=O)c1ccc(C(Oc2ccc(C#N)cc2)C(=O)N(C)c2nc3cc(OC)c(OC)cc3s2)cc1 (stereo not shown) | 50 to 100 nM
COc1cc2nc(NC(=O)Cc3ccccc3C(=O)O)sc2cc1OC | > 500 nM
CCCOC(C(=O)Nc1nc2cc(OC)c(OC)cc2s1)c1ccc(S(=O)(=O)CC)cc1 (stereo not shown) | > 500 nM
CCCOc1ccc(OC(C(=O)Nc2nc3cc(OC)c(OC)cc3s2)c2ccc(S(=O)(=O)CC)cc2)cc1 (stereo not shown) | 200 to 500 nM
CCS(=O)(=O)c1ccc(C(Oc2ccc3ccccc3c2)C(=O)Nc2nc3cc(OC)c(OC)cc3s2)cc1 (stereo not shown) | > 500 nM
CCS(=O)(=O)c1ccc(C(Oc2ccc(C#N)cc2C)C(=O)Nc2nc3cc(OC)c(OC)cc3s2)cc1 (stereo not shown) | < 50 nM
CCS(=O)(=O)c1ccc(CC(=O)Nc2nc3cc(OC)c(OC)cc3s2)cc1 | 200 to 500 nM
COc1cc2nc(NC(=O)C(Oc3ccc(C#N)cc3)c3ccc(S(=O)(=O)c4ccc(C(F)(F)F)cc4)cc3)sc2cc1OC (stereo not shown) | > 500 nM
CCS(=O)(=O)c1ccc(C(Nc2ccc(C)cc2)C(=O)Nc2nc3cc(OC)c(OC)cc3s2)cc1 (stereo not shown) | > 500 nM
CCCCS(=O)(=O)c1cccc(C(Oc2ccc(C#N)cc2)C(=O)Nc2nc3cc(OC)c(OC)cc3s2)c1 (stereo not shown) | 50 to 100 nM
CCS(=O)(=O)c1ccc(C(Oc2ccc(C#N)cc2)C(=O)Nc2nc3cc(OC)c(OC)cc3o2)cc1 (stereo not shown) | < 50 nM
CCS(=O)(=O)c1ccc(C(Oc2ccc(C#N)cc2)C(=O)Nc2nc3cc(OC(C)C)c(OC)cc3s2)cc1 (stereo not shown) | 200 to 500 nM
CCS(=O)(=O)c1ccc(C(Oc2ccc(C#N)cc2)C(=O)Nc2nc3cc(OCC4CC4)c(OC)cc3s2)cc1 (stereo not shown) | > 500 nM
CCOc1ccc(OC(C(=O)Nc2nc3cc(OC)c(OC)cc3s2)c2ccc(S(=O)(=O)CC)cc2)cc1 (stereo not shown) | 200 to 500 nM
CCCCS(=O)(=O)c1ccccc1C(Oc1ccc(C#N)cc1)C(=O)Nc1nc2cc(OC)c(OC)cc2s1 (stereo not shown) | 200 to 500 nM
CCS(=O)(=O)c1ccc(C(Oc2ccc(C#N)cc2)C(=O)Nc2nc3cc(F)c(OC)cc3s2)cc1 (stereo not shown) | > 500 nM
CCS(=O)(=O)c1ccc(C(Oc2ccc(I)cc2)C(=O)Nc2nc3cc(OC)c(OC)cc3s2)cc1 (stereo not shown) | 200 to 500 nM

Structure (SMILES) | EC50
CCS(=O)(=O)c1ccc(C(Oc2ccc(C#N)c(F)c2)C(=O)Nc2nc3cc(OC)c(OC)cc3s2)cc1 (stereo not shown) | < 50 nM
COc1ccc(OC(C(=O)Nc2nc3cc(OC)c(OC)cc3s2)c2cccc(S(=O)(=O)c3ccc(F)cc3)c2)cc1 (stereo not shown) | > 500 nM
COCCS(=O)(=O)c1ccc(C(Oc2ccc(C#N)cc2)C(=O)Nc2nc3cc(OC)c(OC)cc3s2)cc1 (stereo not shown) | < 50 nM
CCS(=O)(=O)c1ccc(C(CC2CC2)C(=O)Nc2nc3cc(OC)c(OC)cc3s2)cc1 (stereo not shown) | > 500 nM
CCS(=O)(=O)c1ccc(C(Oc2ccc(C#N)cc2)C(=O)Nc2nc3cc(OC)c(C)cc3s2)cc1 (stereo not shown) | 200 to 500 nM
CCc1ccc(OC(C(=O)Nc2nc3cc(OC)c(OC)cc3s2)c2ccc(S(=O)(=O)CC)cc2)cc1 (stereo not shown) | 200 to 500 nM
CCS(=O)(=O)c1ccc(C(Oc2ccc(Cl)cc2)C(=O)Nc2nc3cc(OC)c(OC)cc3s2)cc1 (stereo not shown) | 100 to 200 nM
COc1cc2nc(NC(=O)C(Oc3ccc(C#N)cc3)c3ccc(OCCN4CCOCC4)cc3)sc2cc1OC (stereo not shown) | 200 to 500 nM
CCS(=O)(=O)c1ccc(C(C(=O)Nc2nc3cc(OC)c(OC)cc3s2)N(C)C)cc1 (stereo not shown) | > 500 nM
CCS(=O)(=O)c1ccc(C(Oc2ccc(C#N)cc2)C(=O)Nc2nc3cc(OC)c(OC)cc3s2)cc1 (stereo not shown) | < 50 nM
CCS(=O)(=O)c1ccc(C(Oc2cccc(C)c2)C(=O)Nc2nc3cc(OC)c(OC)cc3s2)cc1 (stereo not shown) | > 500 nM
CCS(=O)(=O)c1ccc(C(Oc2ccc(C#N)cc2)C(=O)Nc2nc3ncc(OC)cc3s2)cc1 (stereo not shown) | > 500 nM
COc1cc2nc(NC(=O)Cc3cccc(S(=O)(=O)CC4CC4)c3)sc2cc1OC | > 500 nM
CCS(=O)(=O)c1ccc(C(Oc2ccc(C#N)c(Cl)c2)C(=O)Nc2nc3cc(OC)c(OC)cc3s2)cc1 (stereo not shown) | < 50 nM
CCS(=O)(=O)c1ccc(C(Oc2ccccc2)C(=O)Nc2nc3cc(OC)c(OC)cc3s2)cc1 (stereo not shown) | > 500 nM
COCCOc1ccc(C(Oc2ccc(C#N)cc2)C(=O)Nc2nc3cc(OC)c(OC)cc3s2)cc1 (stereo not shown) | < 50 nM
COc1cc2nc(NC(=O)C(Oc3ccc(C(=O)NCCN4CCCC4)cc3)c3ccc(C#N)cc3)sc2cc1OC (stereo not shown) | 200 to 500 nM
